This is an account of results in publication PMC11521914 (Frontiers in Pharmacology, 2024).

Each structure is given as a SMILES string.

Test [1] deals with T1, Fructose-1,6-bisphosphatase enzyme (FBPase) (Rattus norvegicus, UniProt P19112).
T1 construct: The reaction was started by adding the cytosolic supernatant previously diluted in buffer without substrate; from tissue; host or cells: rat liver, cytosolic supernatant
T1 sequence (P19112 1-363): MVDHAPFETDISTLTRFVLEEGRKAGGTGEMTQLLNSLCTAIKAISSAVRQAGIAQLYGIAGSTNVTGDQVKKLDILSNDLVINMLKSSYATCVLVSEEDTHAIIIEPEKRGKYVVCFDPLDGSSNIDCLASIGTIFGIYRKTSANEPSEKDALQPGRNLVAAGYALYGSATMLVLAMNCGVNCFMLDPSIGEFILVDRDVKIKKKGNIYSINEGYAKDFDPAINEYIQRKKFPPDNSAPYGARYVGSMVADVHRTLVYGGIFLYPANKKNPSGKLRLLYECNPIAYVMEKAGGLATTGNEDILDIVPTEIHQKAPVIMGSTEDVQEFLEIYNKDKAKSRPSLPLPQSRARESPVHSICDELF
Kind of test: Fructose-1,6-bisphosphatase (FBPase) enzyme activity inhibition assay. The following applies: rat liver cytosolic supernatant, 0.1 mM FBP. Format: biochemical. As to the method:
Livers were removed from 18-h fasted healthy rats (3), which were previously anesthetized with 5% isoflurane ([Unit for Laboratory Animal Medicine, 2023]). Then, they were homogenized in buffer (250 mM sucrose, 1 mM EDTA, 5 mM HEPES, pH 7.4), filtered, and subsequently subjected to differential centrifugation as described by [Andrade-Cetto and Cárdenas-Vázquez (2010)]. Both the microsome-enriched supernatant (containing the enzyme complex glucose-6-phosphatase) and the cytosolic supernatant (containing the enzyme fructose-1,6-bisphosphatase) were collected and stored at −40°C until use.
Colorimetric assays were performed to detect the formation of a phosphomolybdate-malachite green complex with the inorganic phosphate released by the enzyme FBPase. […]
The assays were carried out with substrate-enriched buffer (5 µM EDTA, 5 mM MgCl2, 50 mM Tris-HCl, 0.1 mM FBP, pH 7.2) to which the inhibitors were added at different concentrations (AMP, EtOH-WCg, or junceic acid). […] Finally, the absorbance was measured at 630 nm.
(§1) Finally, for in vitro experiments, absorbance values were transformed into activity percentages following the next formula: Enzyme activity %=AS−ASB/AC−ACB×100
(§2) Where A S is the absorbance of the inhibitor sample at a specific concentration, A SB is the blank of the inhibitor sample, A C is the highest absorbance (without inhibitor), and A CB is the blank of the highest absorbance. […]

Test [2] concerns the target Protein tyrosine phosphatase 1B (PTP-1B). Kind of test: Protein tyrosine phosphatase 1B (PTP-1B) enzyme activity inhibition assay. In kind it is biochemical. Conditions: rat liver supernatant, 10 mM pNPP. As for the experimental part:
One day before the isolation of the enzyme-containing subcellular fraction, lysis buffer was prepared (50 mM HEPES, 0.1 mM EGTA, 0.1 mM EDTA, 120 mM NaCl, 0.5% NP-40, pH 7.5) and enriched with one protease inhibitor cocktail tablet per 10 mL of buffer. The liver from an overnight-fasted healthy rat, previously anesthetized with isoflurane, was removed. The organ was then homogenized in lysis buffer as described by [Li et al. (2010)]. The homogenate was filtered and subsequently centrifuged at 14,000 g for 15 min at 4°C. Supernatants were collected and stored at −40°C until use.
Colorimetric assays were carried out to detect the dephosphorylation of pNPP, which is proportional to the activity of the PTP-1B enzyme. Three independent assays were performed in triplicate following the protocols proposed by [Guo et al. (2015)] and [Song et al. (2017)] with slight modifications. […] Finally, the absorbance was measured at 405 nm.
as §1, §2

In test [3] the test system is STZ-NA-hyperglycemic rats. Kind of test: Pyruvate tolerance tests (inhibition of hepatic glucose production). Format: in vivo, Wistar rats. The following applies: rats fasted 18 h, pyruvate 2 g/kg i.p.; metformin 500 mg/kg b.w. oral.
Protocol: Treatment administration (vehicle and samples) was performed orally with the help of an esophageal cannula. Blood samples were obtained from the tail vein and glucose measurements were performed in duplicate using Accu-Chek® Active glucometers.
In summary hyperglycemia was induced as described by [Masiello et al. (1998)], rats fasted for 12 h were administered intraperitoneally with 150 mg/kg b. w. of NA and, 15 min later, 65 mg/kg b. w. of STZ was injected intravenously. After 2 weeks, animals with blood glucose values above 180 mg/dL were selected to perform the tests described below.
After basal glucose measurement, animals received their corresponding treatment. Fifteen minutes later, rats were injected intraperitoneally with a pyruvate solution (2 g/kg b. w.). In total, 30 rats were divided into five groups (n = 6 each group): 1. Normoglycemic Control + pyruvate (NP), receiving physiological solution; 2. Hyperglycemic Control + pyruvate (HP), which was administered with physiological solution; 3. […] (HMP); 4. Hyperglycemic Group + pyruvate + EtOH-WCg, administered with 30 mg/kg b. w. (HCgP); and 5. […] (HJaP). After intraperitoneal injection, glucose levels were measured every 30 min for 2 h ([Mata-Torres et al., 2020]).

Sequence of Protein tyrosine phosphatase 1B (PTP-1B) (P20417 whole entry): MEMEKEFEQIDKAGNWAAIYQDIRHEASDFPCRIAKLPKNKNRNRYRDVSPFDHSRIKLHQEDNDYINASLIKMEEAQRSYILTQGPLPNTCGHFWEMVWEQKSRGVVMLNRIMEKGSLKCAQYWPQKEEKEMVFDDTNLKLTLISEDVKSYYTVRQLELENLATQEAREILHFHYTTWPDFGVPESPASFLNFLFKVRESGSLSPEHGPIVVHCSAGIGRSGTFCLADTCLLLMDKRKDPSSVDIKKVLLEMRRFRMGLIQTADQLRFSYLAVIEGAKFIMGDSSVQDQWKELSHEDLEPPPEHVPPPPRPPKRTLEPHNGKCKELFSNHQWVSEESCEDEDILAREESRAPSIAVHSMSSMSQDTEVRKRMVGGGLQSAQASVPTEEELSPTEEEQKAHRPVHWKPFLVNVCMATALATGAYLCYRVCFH

Take `Nc1ncnc2c1ncn2[C@@H]1O[C@H](COP(=O)(O)O)[C@@H](O)[C@H]1O.O` [AMP, adenosine 5′-monophosphate monohydrate]: in test [1], 95 µM corresponded to half-maximal inhibition (IC50) and the Inhibition % was determined as 96%.
`[Na+].[Na+].[Na+].[O]=[V]([O-])([O-])[O-]` [Na3VO4]: in test [2], the “IC50 ± SEM” value is 43.2 ± 1.5 µg/mL and the Inhibition % was 97%.
Turning to `CN(C)C(=N)N=C(N)N` [metformin], the “effect on the hyperglycemic peak 30 min after pyruvate injection” value in test [3] is on record as “completely inhibited the hyperglycemic peak”.

One may read the IC50 as the concentration that gives 50% inhibition. A lower IC50 goes with greater potency.
